Source: patent US7442714B2, “Amlodipine gentisate and a method of its preparation” (SK Chemicals Co., Ltd., priority 2003, dated 2008)
Structures can show the parent of a compound that is named as a salt.

Tests used:
Light stability (UV) = type: physicochemical
Excerpt: Table 4 represents the result of light stability of amlodipine gentisate salts of the present invention compared to that of amlodipine besylate and the total amount of UV light was 200 W·h/m^2.

[1] = Test for stability: HPLC content of active ingredient after storage at temperature and humidity; type: physicochemical
Excerpt: This experiment is designed to confirm the stability of amlodipine salt. It is essential for a drug to have sufficient stability in order to be formulated into a specific form of preparation. In particular, it is especially important to have an atmospheric stability for a drug to be formulated into tablets or capsules while aqueous stability is more important when a drug is formulated into an injection type of preparation.

wild bird = conditions: oral; cited from earlier work
rat = conditions: oral; cited from earlier work
[2] = system: Rats with congenital hypertension (SHR); assay: Anti-hypertension activity, tail-cuff method; type: in vivo, rat; conditions: oral
Description: Rats with congenital hypertension (SHR, male, 13-14 weeks old) were purchased from Charles River Co. (Japan). […] SHR were used those having systolic blood pressure of 170 mmHg or higher and each experimental group was composed of 8 rats. Blood pressure was measured using Multichannel 8000 (TSE Co., Germany) according to the tail-cuff method. […] […] The result of measurements was indicated in S.E.M. Statistical analysis of the measurements was performed by using Sigma Stat program (Jandel Co., USA) with respect to unpaired t-test and one-way analysis of variance (ANOVA) and the second evaluation was performed via Dunnett multiple comparisons test.

[3] = Sprague-Dawley (printed: Sprague Dowry), rat, in vivo, po, 10 mg/kg
Description: The blood samples were centrifuged for 2 min at 14,000 rpm to obtain blood plasma. 80 μL of the blood plasma was mixed with 240 μL of methanol and vortexed for 10 sec and centrifuged again for 2 min at 14,000 rpm.

[4] = UV, total amount of UV light 200 W·h/m^2

Compound | Content of active ingredients (Light stability (UV); [4]) | Content of active ingredients (Light stability (UV); initial) | Content of active ingredients at 40° C. with 75% humidity ([1]; 2 weeks) | Content of active ingredients at 60° C. with 75% humidity ([1]; 2 weeks) | Content of active ingredients at 40° C. with 75% humidity ([1]; 4 weeks) | Content of active ingredients at 60° C. with 75% humidity ([1]; 4 weeks) | Content of active ingredients at 40° C. with 75% humidity ([1]; 8 weeks) | Content of active ingredients at 60° C. with 75% humidity ([1]; 8 weeks) | Content of active ingredients at 40° C. with 75% humidity ([1]; initial) | Content of active ingredients at 60° C. with 75% humidity ([1]; initial) | LD50 (wild bird) | LD50 (rat) | Time after administration at which a significant decrease in blood pressure started [2] | Time after administration at which the decrease in blood pressure reached the peak [2] | Time after administration until which the anti-hypertension effect was significant [2] | Decrease in Blood Pressure (maximum anti-hypertension effect) ([2]; 2.5 mg/kg) | Decrease in Blood Pressure (maximum anti-hypertension effect) ([2]; 5.0 mg/kg) | Period of highest concentration in blood after administration [3] | Decrease in Blood Pressure (maximum anti-hypertension effect) ([2]; 1.25 mg/kg) | Light stability compared to conventional amlodipine besylate salts (Light stability (UV); under UV or visible light)
CCOC(=O)C1=C(COCCN)NC(C)=C(C(=O)OC)[C@@H]1c1ccccc1Cl.O=S(=O)(O)c1ccccc1 [S-(−)-amlodipine besylate] | 90.1% | 100% | 101.1% | 100.1% | 101.7% | 98.5% | 101.6% | 96.3% | 100% | 100% | – | – | – | – | – | – | – | – | – | –
O=S(=O)(O)c1ccccc1 [Benzenesulfonic acid, benzenesulfonic acid] | – | – | – | – | – | – | – | – | – | – | 75 mg/kg | 890 µL/kg | – | – | – | – | – | – | – | –
CCOC(=O)C1=C(COCCN)NC(C)=C(C(=O)OC)C1c1ccccc1Cl.O=S(=O)(O)c1ccccc1 (racemic) [(±)-amlodipine besylate] | 88.3% | 100% | 99.9% | 98.7% | 99.8% | 97.4% | 99.2% | 98.1% | 100% | 100% | – | – | 30 min | 1 h | 6 h | 20.8±7.3% | 28.6±7.5% | – | – | –
CCOC(=O)C1=C(COCCN)NC(C)=C(C(=O)OC)[C@@H]1c1ccccc1Cl [S-(−)-amlodipine gentisate, (S)-(−)-Amlodipine Gentisate Salt] | 100.7% | 100% | 102.9% | 100.1% | 103.5% | 103.0% | 102.3% | 99.9% | 100% | 100% | – | – | 30 min | 1 h | 6 h | 24.5±7.9% | – | 4 to 6 h | 19.8±5.5% | superior light stability
